Reference: patent US6914045B2, “Glycopeptide antibiotics” (Wyeth Holdings Corporation, priority 2001, dated 2005)
≈ marks a conversion by molar mass, not a printed value. Blank lines part the entries; values can stand above or below the compound they belong to.

Experiments:
Test in all cases: in vitro antibacterial evaluation, MIC by broth dilution
Type in all cases: cell-based
[1] = test system: Enterococcus sp.; conditions: broth dilution, 18 hours at 35° C.
How it was run: (§1)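 Broth dilution per NCCLS M7-A2 in Mueller-Hinton II medium, inoculum 5×10^5 CFU/mL, antibiotic range 64-0.06 μg/mL. MIC taken as lowest concentration inhibiting growth; Gram-positive panel includes recent clinical isolates resistant to methicillin, penicillin and/or vancomycin.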

[2] = test system: Staphylococcus sp.; conditions: broth dilution, 18 hours at 35° C.; for MIC Staphylococcus aureus (ATCC 29213): strain ATCC 29213; for MIC Staphylococcus aureus (GC 1131): strain GC 1131; for MIC Staphylococcus aureus (GC 3051): strain GC 3051; for MIC Staphylococcus aureus (GC 3053): strain GC 3053; for MIC Staphylococcus aureus (GC 4541): strain GC 4541; for MIC Staphylococcus aureus (GC 4542): strain GC 4542; for MIC Staphylococcus aureus-SMITH (GC 4543): strain GC 4543; for MIC Staphylococcus aureus (GC 4544): strain GC 4544; for MIC Staphylococcus aureus (GC 4545): strain GC 4545; for MIC Staphylococcus haemolyticus (GC 4546): strain GC 4546; for MIC Coagulase Negative Staphylococcus (GC 4547): strain GC 4547; for MIC Coagulase Negative Staphylococcus (GC 4548): strain GC 4548; for MIC Coagulase Negative Staphylococcus (GC 4549): strain GC 4549; for MIC Coagulase Negative Staphylococcus (GC 4551): strain GC 4551; for MIC Coagulase Negative Staphylococcus (GC 6257): strain GC 6257
How it was run: as §1

[3] = test system: Streptococcus sp.; conditions: broth dilution, 18 hours at 35° C.
How it was run: as §1

[4] = test system: Escherichia coli; conditions: 18 hours at 35° C.
How it was run: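 Broth dilution MIC per NCCLS M7-A2 in Mueller-Hinton II medium, inoculum 5×10^5 CFU/mL, antibiotic range 64-0.06 μg/mL. MIC taken as lowest concentration inhibiting growth.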

MIC Enterococcus faecalis (ATCC 29212) ([1]; strain ATCC 29212): 16 µg/mL (≈ 13.4 µM)
MIC Enterococcus faecalis (GC 2242) ([1]; strain GC 2242): 16 µg/mL (≈ 13.4 µM)
MIC Enterococcus faecium (GC 2243) ([1]; strain GC 2243): 8 µg/mL (≈ 6.7 µM)
MIC Enterococcus faecalis (GC 2691) ([1]; strain GC 2691): 16 µg/mL (≈ 13.4 µM)
MIC Enterococcus faecalis (GC 3059) ([1]; strain GC 3059): 32 µg/mL (≈ 26.8 µM)
MIC Enterococcus faecalis (GC 4552) ([1]; strain GC 4552): 32 µg/mL (≈ 26.8 µM)
MIC Enterococcus faecalis (GC 4553) ([1]; strain GC 4553): 8 µg/mL (≈ 6.7 µM)
MIC Enterococcus faecalis (GC 4554) ([1]; strain GC 4554): 32 µg/mL (≈ 26.8 µM)
MIC Enterococcus faecium (GC 4556) ([1]; strain GC 4556): 32 µg/mL (≈ 26.8 µM)
MIC Enterococcus faecium (GC 4557) ([1]; strain GC 4557): 4 µg/mL (≈ 3.35 µM)
MIC Enterococcus avium (GC 4558) ([1]; strain GC 4558): 8 µg/mL (≈ 6.7 µM)
MIC Enterococcus faecalis (GC 6189) ([1]; strain GC 6189): 16 µg/mL (≈ 13.4 µM)
MIC Staphylococcus aureus (ATCC 29213) [2]: 8 µg/mL (≈ 6.7 µM)
MIC Staphylococcus aureus (GC 1131) [2]: 8 µg/mL (≈ 6.7 µM)
MIC Staphylococcus aureus (GC 3051) [2]: 8 µg/mL (≈ 6.7 µM)
MIC Staphylococcus aureus (GC 3053) [2]: 8 µg/mL (≈ 6.7 µM)
MIC Staphylococcus aureus (GC 4541) [2]: 8 µg/mL (≈ 6.7 µM)
MIC Staphylococcus aureus (GC 4542) [2]: 8 µg/mL (≈ 6.7 µM)
MIC Staphylococcus aureus-SMITH (GC 4543) [2]: 8 µg/mL (≈ 6.7 µM)
MIC Staphylococcus aureus (GC 4544) [2]: 8 µg/mL (≈ 6.7 µM)
MIC Staphylococcus aureus (GC 4545) [2]: 8 µg/mL (≈ 6.7 µM)
MIC Coagulase Negative Staphylococcus (GC 4547) [2]: 8 µg/mL (≈ 6.7 µM)
MIC Coagulase Negative Staphylococcus (GC 4548) [2]: 8 µg/mL (≈ 6.7 µM)
MIC Coagulase Negative Staphylococcus (GC 4549) [2]: 8 µg/mL (≈ 6.7 µM)
MIC Coagulase Negative Staphylococcus (GC 4551) [2]: 8 µg/mL (≈ 6.7 µM)
MIC Coagulase Negative Staphylococcus (GC 6257) [2]: 2 µg/mL (≈ 1.67 µM)
MIC Streptococcus pneumoniae (ATCC 6301) ([3]; strain ATCC 6301): 8 µg/mL (≈ 6.7 µM)
MIC Streptococcus pneumoniae (GC 1894) ([3]; strain GC 1894): 8 µg/mL (≈ 6.7 µM)
MIC Streptococcus pyogenes (GC 4563) ([3]; strain GC 4563): 2 µg/mL (≈ 1.67 µM)
MIC Streptococcus agalactiae (GC 4564) ([3]; strain GC 4564): 8 µg/mL (≈ 6.7 µM)
MIC Streptococcus pneumoniae (GC 4565) ([3]; strain GC 4565): 16 µg/mL (≈ 13.4 µM)
MIC Escherichia coli (ATCC 25922) ([4]; strain ATCC 25922, broth dilution): >128 µg/mL
MIC Escherichia coli (GC 4559) ([4]; strain GC 4559, broth dilution): >128 µg/mL
MIC Escherichia coli (GC 4560) ([4]; strain GC 4560, broth dilution): 16 µg/mL (≈ 13.4 µM)
SMILES: COc1ccc(Oc2cccc(-c3nc4cc(CC5NC(=O)C(C(C)c6ccccc6)NC(=O)CNC(=O)C(CO)NC(=O)C(C(O)C6CNC(=N)N6C6OC(CO)C(O)C(O)C6O)NC(=O)C(C(O)C6CNC(=N)N6)NC5=O)ccc4o3)c2)cc1 (stereo not drawn) [Example 35, Cyclo[3-[2-[3-(4-methoxyphenoxy)phenyl]-1,3-benzoxazol-5-yl]alanyl-3-(2-iminoimidazolidin-4-yl)seryl-3-(3-hexopyranosyl-2-iminoimidazolidin-4-yl)serylserylglycyl-β-methylphenyl-alanyl]]
MIC Staphylococcus haemolyticus (GC 4546) [2]: 8 µg/mL (≈ 6.7 µM)

MIC Enterococcus avium (GC 4558) [1]: 2 µg/mL (≈ 1.4 µM)
MIC Enterococcus faecalis (ATCC 29212) [1]: 1 µg/mL (≈ 0.702 µM)
MIC Enterococcus faecalis (GC 2242) [1]: 1 µg/mL (≈ 0.702 µM)
MIC Enterococcus faecalis (GC 2691) [1]: 2 µg/mL (≈ 1.4 µM)
MIC Enterococcus faecalis (GC 3059) [1]: 1 µg/mL (≈ 0.702 µM)
MIC Enterococcus faecalis (GC 4552) [1]: 1 µg/mL (≈ 0.702 µM)
MIC Enterococcus faecalis (GC 4553) [1]: 2 µg/mL (≈ 1.4 µM)
MIC Enterococcus faecalis (GC 4554) [1]: 2 µg/mL (≈ 1.4 µM)
MIC Enterococcus faecalis (GC 6189) [1]: 0.5 µg/mL (≈ 0.351 µM)
MIC Enterococcus faecium (GC 2243) [1]: 1 µg/mL (≈ 0.702 µM)
MIC Enterococcus faecium (GC 4556) [1]: 1 µg/mL (≈ 0.702 µM)
MIC Enterococcus faecium (GC 4557) [1]: 2 µg/mL (≈ 1.4 µM)
MIC Enterococcus faecalis (ATCC 29212) ([1]; inoculum 5×10^5 CFU/mL, strain ATCC 29212): 1 µg/mL (≈ 0.702 µM)
MIC Enterococcus faecalis (GC 2242) ([1]; inoculum 5×10^5 CFU/mL, strain GC 2242): 1 µg/mL (≈ 0.702 µM)
MIC Enterococcus faecium (GC 2243) ([1]; inoculum 5×10^5 CFU/mL, strain GC 2243): 1 µg/mL (≈ 0.702 µM)
MIC Enterococcus faecalis (GC 2691) ([1]; inoculum 5×10^5 CFU/mL, strain GC 2691): 2 µg/mL (≈ 1.4 µM)
MIC Enterococcus faecalis (GC 3059) ([1]; inoculum 5×10^5 CFU/mL, strain GC 3059): 1 µg/mL (≈ 0.702 µM)
MIC Enterococcus faecalis (GC 4552) ([1]; inoculum 5×10^5 CFU/mL, strain GC 4552): 1 µg/mL (≈ 0.702 µM)
MIC Enterococcus faecalis (GC 4553) ([1]; inoculum 5×10^5 CFU/mL, strain GC 4553): 2 µg/mL (≈ 1.4 µM)
MIC Enterococcus faecalis (GC 4554) ([1]; inoculum 5×10^5 CFU/mL, strain GC 4554): 2 µg/mL (≈ 1.4 µM)
MIC Enterococcus faecium (GC 4556) ([1]; inoculum 5×10^5 CFU/mL, strain GC 4556): 1 µg/mL (≈ 0.702 µM)
MIC Enterococcus faecium (GC 4557) ([1]; inoculum 5×10^5 CFU/mL, strain GC 4557): 2 µg/mL (≈ 1.4 µM)
MIC Enterococcus avium (GC 4558) ([1]; inoculum 5×10^5 CFU/mL, strain GC 4558): 2 µg/mL (≈ 1.4 µM)
MIC Enterococcus faecalis (GC 6189) ([1]; inoculum 5×10^5 CFU/mL, strain GC 6189): 0.5 µg/mL (≈ 0.351 µM)
MIC Staphylococcus aureus (GC 1131) ([2]; inoculum 5×10^5 CFU/mL): 1 µg/mL (≈ 0.702 µM)
MIC Staphylococcus aureus (ATCC 29213) [2]: 0.5 µg/mL (≈ 0.351 µM)
MIC Staphylococcus aureus (GC 1131) [2]: 1 µg/mL (≈ 0.702 µM)
MIC Staphylococcus aureus (GC 3051) [2]: 1 µg/mL (≈ 0.702 µM)
MIC Staphylococcus aureus (GC 3053) [2]: 0.5 µg/mL (≈ 0.351 µM)
MIC Staphylococcus aureus (GC 4541) [2]: 0.5 µg/mL (≈ 0.351 µM)
MIC Staphylococcus aureus (GC 4542) [2]: 0.25 µg/mL (≈ 0.176 µM)
MIC Staphylococcus aureus-SMITH (GC 4543) [2]: 0.5 µg/mL (≈ 0.351 µM)
MIC Staphylococcus aureus (GC 4544) [2]: 1 µg/mL (≈ 0.702 µM)
MIC Staphylococcus aureus (GC 4545) [2]: 0.5 µg/mL (≈ 0.351 µM)
MIC Coagulase Negative Staphylococcus (GC 4547) [2]: 1 µg/mL (≈ 0.702 µM)
MIC Coagulase Negative Staphylococcus (GC 4548) [2]: 0.25 µg/mL (≈ 0.176 µM)
MIC Coagulase Negative Staphylococcus (GC 4549) [2]: 0.25 µg/mL (≈ 0.176 µM)
MIC Coagulase Negative Staphylococcus (GC 4551) [2]: 0.5 µg/mL (≈ 0.351 µM)
MIC Coagulase Negative Staphylococcus (GC 6257) [2]: 0.25 µg/mL (≈ 0.176 µM)
MIC Streptococcus agalactiae (GC 4564) [3]: <0.06 µg/mL
MIC Streptococcus pneumoniae (ATCC 6301) [3]: 0.12 µg/mL (≈ 0.0843 µM)
MIC Streptococcus pneumoniae (GC 1894) [3]: <0.06 µg/mL
MIC Streptococcus pneumoniae (GC 4565) [3]: <0.06 µg/mL
MIC Streptococcus pyogenes (GC 4563) [3]: <0.06 µg/mL
MIC Streptococcus pneumoniae (ATCC 6301) ([3]; inoculum 5×10^5 CFU/mL, strain ATCC 6301): 0.12 µg/mL (≈ 0.0843 µM)
MIC Streptococcus pneumoniae (GC 1894) ([3]; inoculum 5×10^5 CFU/mL, strain GC 1894): <0.06 µg/mL
MIC Streptococcus pyogenes (GC 4563) ([3]; inoculum 5×10^5 CFU/mL, strain GC 4563): <0.06 µg/mL
MIC Streptococcus agalactiae (GC 4564) ([3]; inoculum 5×10^5 CFU/mL, strain GC 4564): <0.06 µg/mL
MIC Streptococcus pneumoniae (GC 4565) ([3]; inoculum 5×10^5 CFU/mL, strain GC 4565): <0.06 µg/mL
MIC Escherichia coli (GC 4559) [4]: 32 µg/mL (≈ 22.5 µM)
MIC Escherichia coli (GC 4560) [4]: 2 µg/mL (≈ 1.4 µM)
SMILES: CC(c1ccc(Cl)cc1)C1NC(=O)CNC(=O)C(CO)NC(=O)C(C(O)C2CNC(=N)N2C2OC(CO)C(O)C(O)C2O)NC(=O)C(C(O)C2CNC(=N)N2)NC(=O)C(Cc2ccc(OC3OC(CO)C(OC4OC5COC(C6CCCCC6)OC5C(O)C4O)C(O)C3O)cc2)NC1=O (stereo not drawn) [Example 193]
MIC Staphylococcus haemolyticus (GC 4546) [2]: 0.5 µg/mL (≈ 0.351 µM)
